Measured values: PMC7291367, “Insightful Backbone Modifications Preventing Proteolytic Degradation of Neurotensin Analogs Improve NTS1-Induced Protective Hypothermia” (Frontiers in Chemistry, 2020)
“Also recorded” adds a separate entry of the source. Where two headings read alike, the source gives them in different places. Numbered stars: 1 amine (or outer) side, 2 acyl side, 3 side chain; on linkers, the order of the positions; unused ones are H or OH. Square brackets hold non-standard residues; d marks the D form. Peptide text beside a SMILES is read from it. X1 = NCCCC[C@H](N)CN([C@@H](CCCCN)C(=O)[*:2])[*:1]; Ala(SiMe3) = C[Si](C)(C)C[C@H](N)C(=O)O; X2 = C[Si]1(C)CC(C(=O)[*:2])N([*:1])C1; Dmt = Cc1cc(O)cc(C)c1C[C@H](N)C(=O)O; Tle = CC(C)(C)[C@H](N)C(=O)O

Key:
[1] = Plasma stability assay (UPLC/MS); format: in vitro ADME; settings: 37°C; for half-life at 0.156 mM: rat; for Plasma stability (Half-life): rat plasma, 0.156 mM
Procedure: Rat plasma was obtained from blood by keeping the translucent phase after centrifugation at 15,000 g over 5 min. Plasma stability assay was carried out by incubating each compound at different incubation times in rat plasma at a final concentration of 0.156 mM. […] Then, 70 μl of a solution containing 10% trichloroacetic acid (TCA) and 0.5% nicotinamine, an internal standard, was added to stop the degradation by proteases. After centrifugation at 15,000 g for 30 min, supernatant was filtered through 0.22-μm filter and analyzed by UPLC/MS (Water H Class Acquity UPLC, mounted with Acquity UPLC BEH C18 column, 1.7 μm, 2.1 × 50 mm and paired to a SQ Detector 2). Compounds 1, 2, and 5 were analyzed using the mass or UV spectrum. Quantification was done by determining the area under the curve (AUC) ratio of each compound over AUC of nicotinamine for each incubation time. Data were plotted into GraphPad Prism 8 and the half-life of each compound was calculated using one-phase decay fit and represented the mean ± SEM of minimum three separate experiments.

[2] = molecular target: T1, hNTS2 (Homo sapiens, UniProt O95665); assay: Competitive radioligand binding assay, 125I-[Tyr3]-NT displacement, 1321N1 cell membranes; settings: for NTS1/NTS2 selectivity: ratio of Ki hNTS1 to Ki hNTS2; for fold decrease in NTS2 binding affinity: compared to NT(8-13)
T1 sequence (O95665 whole entry): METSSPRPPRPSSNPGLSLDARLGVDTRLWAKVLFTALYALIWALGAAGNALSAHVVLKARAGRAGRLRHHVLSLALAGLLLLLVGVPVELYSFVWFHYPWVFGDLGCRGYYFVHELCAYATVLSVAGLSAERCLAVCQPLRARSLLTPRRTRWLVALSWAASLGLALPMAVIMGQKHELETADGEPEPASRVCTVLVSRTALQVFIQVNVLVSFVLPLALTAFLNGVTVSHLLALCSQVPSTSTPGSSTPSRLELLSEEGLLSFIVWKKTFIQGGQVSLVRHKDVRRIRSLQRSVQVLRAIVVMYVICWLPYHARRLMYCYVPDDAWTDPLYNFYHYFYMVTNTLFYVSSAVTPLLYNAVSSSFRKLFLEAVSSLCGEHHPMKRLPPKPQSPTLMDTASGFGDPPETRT
Procedure: (§1) All media and additives are from Wisent (St-Bruno, QC). […] After 1 h of incubation at room temperature, the binding reaction mixture was transferred in polyethylenimine-coated 96-well-filter plates (Millipore, Billerica, MA). Reaction was terminated by filtration, and plates were washed three times with 200 μl of ice-cold binding buffer. […] Data were plotted using GraphPad Prism 8 using the One-site—Fit log (IC50) and represent the mean ± SEM of at least three separate experiments performed in triplicate.

[3] = tested on: Sprague-Dawley rats; assay: Body temperature measurement after intrathecal injection; format: in vivo; settings: rat; for effect on body temperature / temperature drop: 30 μg/kg i.t.; for effect on body temperature: compared to the saline-treated group; for Hypothermia ΔTemp: 30 μg/kg, i.t., change in body temperature from baseline at 60 min; for temperature drop: for up to 60 min
Description: The experimental procedures in this study were approved by the Animal Care Committee of the Université de Sherbrooke (protocol n°035-18B) and were in accordance with policies and directives of the Canadian Council on Animal Care. Adult male Sprague-Dawley rats, weighing 175–225 g (Charles River laboratories, St-Constant, Québec, Canada), were maintained on a 12-h light/dark cycle with free access to food and water and were housed two per cage on Aspen shavings in a quiet room.
Rats were lightly anesthetized with isoflurane/oxygen (Baxter corporation, Mississauga, ON, Canada; 2 L/min) flow and 25 μl of each compound were injected intrathecally with a 27-G 1/2 needle (BD PrecisionGlide, USA) into the subarachnoid space between vertebrae L5 and L6. Analogs 1–14 were diluted in physiological saline at 5 mg/ml, whereas compounds 15 and 16 were diluted in DMSO. For body temperature measurement, the injected solution of these both compounds contained 6% DMSO at final concentration (30 μg/kg).
Three consecutive days prior to testing, animals were individually acclimatized to manipulations and to a thermistor probe 5 min per day. The day of the test, experiments were always performed in a quiet room and between 8:00 and 12:00 PM. to reduce any variation related to the circadian rhythm. Body temperature was measured using a thermistor probe inserted into the rectum of adult Sprague-Dawley rats. Temperatures were recorded immediately before (baseline) and each 10 min for up to 60 min following intrathecal administration of saline, vehicle (6% DMSO) or NT analogs at 30 μg/kg. Changes in body temperature (Δ body temp) from baseline were determined for each animal. Data are expressed as mean ± SEM of 5 to 20 animals per condition.
Data are expressed as mean ± standard errors of the mean (SEM). All graphs and statistical analysis were performed using GraphPad Prism 8 (GraphPad software, La Jolla, CA, USA). A two-way ANOVA followed by Bonferroni's multiple comparisons test was used to determine significant differences between drug- and vehicle-treated rats at different timepoints post-injection.

[4] = molecular target: T2, hNTS1 (Homo sapiens, UniProt P30989); assay: Competitive radioligand binding assay, 125I-[Tyr3]-NT displacement, CHO-K1 cell membranes; settings: for fold decrease in NTS1 binding affinity: compared to NT(8-13)
T2 sequence (P30989 whole entry): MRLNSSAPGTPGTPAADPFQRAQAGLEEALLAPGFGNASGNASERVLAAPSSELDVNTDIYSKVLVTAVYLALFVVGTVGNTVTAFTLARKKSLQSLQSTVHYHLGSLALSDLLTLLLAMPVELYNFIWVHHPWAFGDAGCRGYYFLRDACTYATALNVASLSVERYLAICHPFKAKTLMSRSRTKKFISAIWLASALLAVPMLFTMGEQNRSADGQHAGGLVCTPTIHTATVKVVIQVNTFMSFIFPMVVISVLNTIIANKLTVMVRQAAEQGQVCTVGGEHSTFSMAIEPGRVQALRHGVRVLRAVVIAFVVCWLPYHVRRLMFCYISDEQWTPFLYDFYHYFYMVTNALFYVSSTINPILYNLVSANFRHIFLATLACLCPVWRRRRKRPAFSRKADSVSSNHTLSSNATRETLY
Procedure: as §1

[5] = molecular target: T1, hNTS2; settings: Ki values taken from the literature (Figure 1 legend) ref Fanelli et al., 2015; Eiselt et al., 2019; read-out: Binding, Ki hNTS2; cited from earlier work
[6] = molecular target: T2, hNTS1; settings: Ki values taken from the literature (Figure 1 legend) ref Fanelli et al., 2015; Eiselt et al., 2019; read-out: Binding, Ki hNTS1; cited from earlier work
[7] = mean ± SEM, at least three experiments, Cheng-Prusoff from IC50, read-out: Binding, Ki hNTS2

CC[C@H](C)[C@H](NC(=O)[C@H](Cc1ccc(O)cc1)NC(=O)[C@@H]1CCCN1C(=O)[C@H](CCCCN)NC(=O)[C@@H](N)CCCCN)C(=O)N[C@@H](CC(C)C)C(=O)O [Compound 1, H-Lys-Lys-Pro-Tyr-Ile-Leu-OH]
half-life at 0.156 mM ([1]; short incubation times): 0.0267 ± 0.005 h | Ki [2]: 1.1 ± 0.2 nM | effect on body temperature [3]: not effective in reducing the body temperature; also recorded: not effective to induce drop in body temperature | Hypothermia ΔTemp [3]: 0.27 ±0.2 °C

CC[C@H](C)[C@H](NC(=O)[C@H](Cc1ccc(O)cc1)NC(=O)[C@@H]1CCCN1C(=O)[C@H](CCCCN)NC[C@@H](N)CCCCN)C(=O)N[C@@H](CC(C)C)C(=O)O [Compound 2, H-LysΨ[CH2NH]Lys-Pro-Tyr-Ile-Leu-OH] (H-[X1]PYIL-OH)
Plasma stability (Half-life) ([1]; short incubation times): 0.14 ± 0.0333 h | half-life at 0.156 mM ([1]; plasma, short incubation times): < 0.167 h | Ki [2, 7]: 0.31 ± 0.08 nM | NTS1/NTS2 selectivity [2]: 6 | Ki [4]: 2 ± 0.8 nM

CC[C@H](C)[C@H](NC(=O)[C@H](Cc1ccc(O)cc1)NC(=O)[C@@H]1CCCN1C(=O)[C@H](CCCCN)NC[C@@H](N)CCCCN)C(=O)N[C@@H](C[Si](C)(C)C)C(=O)O [Compound 4, H-Lysψ[CH2NH]Lys-Pro-Tyr-Ile-TMSAla-OH] (H-[X1]PYI[Ala(SiMe3)]-OH)
half-life at 0.156 mM ([1]; plasma, incubation up to 24 h): 2 ± 0.2 h | Ki [2]: 0.55 ± 0.1 nM | NTS1/NTS2 selectivity [2]: 4.5 | Ki [4]: 2.5 ± 0.2 nM | fold decrease (loss) of affinity at NTS1 ([4]; compared to 3): 140 fold | effect on body temperature [3]: long-lasting hypothermia | Hypothermia ΔTemp [3]: −2.0 ± 0.10 °C | temperature drop [3]: more than 2 °C

CC[C@H](C)[C@H](NC(=O)[C@H](Cc1ccc(O)cc1)NC(=O)C1C[Si](C)(C)CN1C(=O)[C@H](CCCCN)NC(=O)[C@@H](N)CCCCN)C(=O)N[C@@H](CC(C)C)C(=O)O (stereo partly drawn) [Compound 5, H-Lys-Lys-Sip-Tyr-Ile-Leu-OH] (H-KK[X2]YIL-OH)
effect on body temperature [3]: not effective in reducing the body temperature; also recorded: not effective to induce drop in body temperature | Hypothermia ΔTemp [3]: −0.07 ± 0.2 °C

CC[C@H](C)[C@H](NC(=O)[C@H](Cc1ccc(O)cc1)NC(=O)C1C[Si](C)(C)CN1C(=O)[C@H](CCCCN)NC[C@@H](N)CCCCN)C(=O)N[C@@H](CC(C)C)C(=O)O (stereo partly drawn) [Compound 6, H-Lysψ[CH2NH]Lys-Sip-Tyr-Ile-Leu-OH]
half-life at 0.156 mM ([1]; plasma, incubation up to 24 h): 22 ± 2 h | Ki [2]: 130 ± 30 nM | fold decrease in NTS2 binding affinity [2]: ~50 fold | NTS1/NTS2 selectivity [2]: 2.3 | Ki [4]: 300 ± 50 nM | fold decrease in NTS1 binding affinity [4]: 200 fold | effect on body temperature [3]: slight decrease in core body temperature; also recorded: hypothermic response | Hypothermia ΔTemp [3]: −2.2 ± 0.3 °C

CC[C@H](C)[C@H](NC(=O)[C@H](Cc1ccc(O)cc1)NC(=O)C1C[Si](C)(C)CN1C(=O)[C@H](CCCCN)NC(=O)[C@@H](N)CCCCN)C(=O)N[C@@H](C[Si](C)(C)C)C(=O)O (stereo partly drawn) [Compound 7, H-Lys-Lys-Sip-Tyr-Ile-TMSAla-OH] (H-KK[X2]YI[Ala(SiMe3)]-OH)
Ki [2]: 16 ± 4 nM | fold decrease in NTS2 binding affinity [2]: 6 fold | NTS1/NTS2 selectivity [2]: 3.4 | Ki [4]: 55 ± 5 nM | fold decrease in NTS1 binding affinity [4]: 35 fold | effect on body temperature [3]: not effective in reducing the body temperature; also recorded: not effective to induce drop in body temperature | Hypothermia ΔTemp [3]: −0.30 ± 0.6 °C

CC[C@H](C)[C@H](NC(=O)[C@H](Cc1ccc(O)cc1)NC(=O)C1C[Si](C)(C)CN1C(=O)[C@H](CCCCN)NC[C@@H](N)CCCCN)C(=O)N[C@@H](C[Si](C)(C)C)C(=O)O (stereo partly drawn) [Compound 8, H-LysΨ[CH2NH]Lys-Sip-Tyr-Ile-TMSAla-OH]
half-life at 0.156 mM ([1]; plasma, incubation up to 24 h): > 20 h

CC[C@H](C)[C@H](NC(=O)[C@H](CCCCN)NC(=O)[C@@H]1CCCN1C(=O)[C@H](CCCCN)NC[C@@H](N)CCCCN)C(=O)N[C@@H](CC(C)C)C(=O)O [Compound 10, H-LysΨ[CH2NH]Lys-Pro-Lys-Ile-Leu-OH] (H-[X1]PKIL-OH)
half-life at 0.156 mM ([1]; plasma, incubation up to 24 h): 5 ± 0.2 h

CC[C@H](C)[C@H](NC(=O)[C@H](CCCCN)NC(=O)[C@@H]1CCCN1C(=O)[C@H](CCCCN)NC(=O)[C@@H](N)CCCCN)C(=O)N[C@@H](C[Si](C)(C)C)C(=O)O [Compound 11, H-Lys-Lys-Pro-Lys-Ile-TMSAla-OH] (H-KKPKI[Ala(SiMe3)]-OH)
Ki [2]: 76 ± 20 nM | fold increase in affinity toward NTS2 ([2]; compared to 9): 4 fold | NTS1/NTS2 selectivity [2]: 9.3 | Ki [4]: 710 ± 100 nM | fold increase in affinity toward NTS1 ([4]; compared to 9): 10 fold | effect on body temperature [3]: did not induce hypothermia; also recorded: did not cause drop in body temperature | Hypothermia ΔTemp [3]: 0.04 ± 0.2 °C

CC[C@H](C)[C@H](NC(=O)[C@@H](Cc1c[nH]c2ccccc12)NC(=O)[C@@H]1CCCN1C(=O)[C@H](CCCCN)NC(=O)[C@@H](N)CCCCN)C(=O)N[C@@H](C[Si](C)(C)C)C(=O)O [Compound 13, H-Lys-Lys-Pro-D-Trp-Ile-TMSAla-OH] (H-KKP[dW]I[Ala(SiMe3)]-OH)
Plasma stability (Half-life) ([1]; short incubation times): 0.167 ± 0.033 h | half-life at 0.156 mM ([1]; plasma, short incubation times): < 0.167 h | Ki [2]: 8.5 ± 2 nM | selectivity toward NTS2 ([2]; NTS2 over NTS1, text): > 420 fold | NTS1/NTS2 selectivity [2]: 423

CC[C@H](C)[C@H](NC(=O)[C@@H](Cc1c[nH]c2ccccc12)NC(=O)[C@@H]1CCCN1C(=O)[C@H](CCCCN)NC[C@@H](N)CCCCN)C(=O)N[C@@H](C[Si](C)(C)C)C(=O)O [Compound 14, H-Lysψ[CH2NH]Lys-Pro-D-Trp-Ile-TMSAla-OH] (H-[X1]P[dW]I[Ala(SiMe3)]-OH)
half-life at 0.156 mM ([1]; plasma, incubation up to 24 h): > 20 h | Ki [2]: 3.5 ± 0.6 nM | NTS1/NTS2 selectivity [2]: 16 | Ki [4]: 55 ± 3 nM | fold increase in binding to NTS1 ([4]; compared to 13 (addition of reduced amine bond)): 65 fold | effect on body temperature [3]: long-lasting hypothermia | Hypothermia ΔTemp [3]: −1.8 ± 0.2 °C | temperature drop [3]: more than 2 °C

Cc1cc(O)cc(C)c1C[C@H](NC(=O)[C@@H]1CCCN1C(=O)[C@H](CCCCN)NC(=O)[C@@H](N)CCCCN)C(=O)N[C@H](C(=O)N[C@@H](CC(C)C)C(=O)O)C(C)(C)C [Compound 15, H-Lys-Lys-Pro-Dmt-Tle-Leu-OH] (H-KKP[Dmt][Tle]L-OH)
Ki [5]: 2.4 ± 1 nM | NTS1/NTS2 selectivity [2]: 24 | Ki [6]: 57 ± 6 nM | effect on body temperature [3]: not effective in reducing the body temperature; also recorded: not effective to induce drop in body temperature | Hypothermia ΔTemp [3]: 0.14 ± 0.2 °C

CC[C@H](C)[C@H](NC(=O)[C@H](Cc1ccc(O)cc1)NC(=O)[C@@H]1CCCN1C(=O)[C@H](CCCNC(=N)N)NC(=O)[C@@H](N)CCCNC(=N)N)C(=O)N[C@@H](CC(C)C)C(=O)O [NT(8-13), H-Arg-Arg-Pro-Tyr-Ile-Leu-OH, reference compound]
half-life at 0.156 mM ([1]; short incubation times): 0.0167 ± 0.00167 h

H-KKPKIL-OH [Compound 9, H-Lys-Lys-Pro-Lys-Ile-Leu-OH]
fold decrease in NTS2 binding affinity [2]: > 110 fold | Ki [2, 7]: 310 ± 100 nM | NTS1/NTS2 selectivity [2]: 25 | fold decrease in NTS1 binding affinity [4]: more than 5,000 fold | effect on body temperature [3]: did not induce hypothermia; also recorded: did not cause drop in body temperature | Hypothermia ΔTemp [3]: 0.32 ± 0.2 °C
